Results published in patent US20090286745A1, “INHIBITION OF ALPHA-SYNUCLEIN AGGREGATION” (Zapaloid Limited, priority 2006, published 2009).
Entries after “also recorded” stand apart in the source; their conditions may differ.

target: α-synuclein (Homo sapiens, UniProt P37840); experiment: Kinetic thioflavin T aggregation assay of ASYN in TBS; type: biochemical; settings: Table 4 interactomer peptides, 50 μM ASYN, 100 μM inhibitor, 37 C, 48 hours, sigmoidal fit
Method: (§1) Kinetic ThT assays were performed by adding ThT directly to the sample at time=0. A 2.5 mM ThT stock solution was made up in the buffer that was used in the aggregation experiment, filtered through a […] Millex GV filter and diluted to 62.5 μM by adding 5 μl to final sample volume of 200 μl in a 96-well polypropylene plate. The increase in fluorescence over time as a result of amyloid formation was measured in a Biotek Synergy HT plate reader at 37° C. with shaking. Cut off filters were used for exitation at 440/30 nm and emission at 485/20 nm. Readings were every 10 minutes with shaking for 500 seconds before each reading.
Aggregation assays were carried out with 50 μM ASYN and 100 μM inhibitor with 50 mM tris and 150 mM NaCl and 20 μM Thioflavin T. The reaction volume was 200 μL. Each reaction was set up in a 96 well polypropylene plate with ASYN only and buffer only controls. The reactions were incubated at 37 C with shaking for 48 hours and aggregation was monitored by reading thioflavin T fluorescence as described above.
The aggregation inhibition properties of ZP-0154 and ZP-0155 were tested in kinetic ThT assays in TBS as described above.
All peptides were tested for inhibition of ASYN aggregation in TBS as described above and the kinetic traces were fit using Zyentiafit software which fits the data to a Sigmoidal function f(x)=k+A/(1+exp(−b(t−t0))) from which the lag time, rate of aggregation and total change in ThT fluorescence may be calculated.
A kinetic thioflavin T assay to measure aggregation was set up with 50 uM α-synuclein in TBS and a molar ratio of 1:2 of α-synuclein:inhibitor). Reactions were incubated for 48 hours at 37° C. with shaking and thioflavin T fluorescence was measured every 10 minutes. The kinetic traces were fit using Zyentiafit software which fits the data to a Sigmoidal function f(x)=k+A/(1+exp(−b(t−t0))) from which the lag time, rate of aggregation and total change in ThT fluorescence may be calculated.

% decrease in ThT fluorescence [%] | % decrease in rate of aggregation [%] | % increase in Lag phase [%] | Substance
8.7 | −15.8 | 31.4 | Ac-hhtevy-NH2 [ZP-0193]
0.6 | −0.6 | 30.4 | Ac-hhtivk-NH2 [ZP-0179]
22.8 | −1.2 | 29.4 | Ac-hhtlva-NH2 [ZP-0181]
15.1 | 18.4 | 32.5 | Ac-hhviva-NH2 [ZP-0158]
−8.6 | −5.4 | 29.8 | Ac-hhvivp-NH2 [ZP-0168]
24.5 | 29.3 | 29.4 | Ac-hhvivt-NH2 [ZP-0170]
−0.5 | −13.3 | 26.1 | Ac-hhvivv-NH2 [ZP-0169]
−5.9 | 2.3 | 19.7 | Ac-hhvkva-NH2 [ZP-0161]
8.8 | 10.5 | 36.5 | Ac-hhvlva-NH2 [ZP-0160]
5.5 | 3.6 | 29.7 | Ac-qpsvli-NH2 [ZP-0207]
53.5 | 54.5 | −28.8 | Ac-qykvli-NH2 [ZP-0202]
3.3 | 8.4 | 25.9 | Ac-qypvli-NH2 [ZP-0206]
1.4 | −5.6 | 23.6 | Ac-qysvpi-NH2 [ZP-0204]
51.1 | 44.9 | −14.4 | Ac-rysvli-NH2 [ZP-0212]
40.8 | 46.2 | 38.2 | NH3-pysvli-NH2 [ZP-0228]
10.9 | 15.9 | 32.4 | NH3-qysvlt-NH2 [ZP-0230]
24.7 | 22.8 | −22.4 | NH3-qytvli-NH2 [ZP-0221]

More lines, now with the values behind:

Substance | % decrease in ThT fluorescence [%] | % decrease in rate of aggregation [%] | % increase in Lag phase [%]
Ac-drysvli-NH2 [ZP-0214] | 20.4 | 4.8 | −12.6
Ac-ekysvli-NH2 [ZP-0213] | 25.6 | 12.9 | 29.4
Ac-hhtivv-NH2 [ZP-0175] | 21.9 | 16.8 | 89.7
Ac-hhtlvv-NH2 [ZP-0186] | 30.7 | 29.7 | 16.1
Ac-hhttvy-NH2 [ZP-0194] | 11.6 | 7.7 | 38.8
Ac-hhtvva-NH2 [ZP-0180] | 19.8 | 18.4 | 30.3
Ac-hhveva-NH2 [ZP-0162] | 6.3 | 6.6 | 33.4
Ac-hhvivw-NH2 [ZP-0172] | −1.7 | 6.9 | 28.1
Ac-hhvivy-NH2 [ZP-0171] | 13.9 | 13.2 | 43.6
Ac-hhvvva-NH2 [ZP-0159] | 19.8 | 18.6 | 36.6
Ac-hpviva-NH2 [ZP-0164] | 3.7 | −2.3 | 43.0
Ac-qyspli-NH2 [ZP-0205] | 16.6 | −11.9 | 30.6
NH3-qykvli-NH2 [ZP-0222] | 42.3 | 34.3 | 7.7
NH3-qysvli-NH2 [ZP-0215] | 27.6 | 17.5 | 3.1
NH3-qysvlv-NH2 [ZP-0229] | 17.8 | 24.3 | 33.5

same assay, conditions: Table 5 structure stabilising peptides, 50 uM α-synuclein, 1:2 α-synuclein:inhibitor, 48 hours, 37° C., relative to α-synuclein only

% decrease in ThT fluorescence [%] | % decrease in rate of aggregation [%] | % increase in Lag phase [%] | Substance
6.1 | 10.9 | 16.6 | Ac-egkgegk-NH2 [ZP-0241]
4.3 | 2.7 | 11.2 | Ac-kgegk-NH2 [ZP-0231]
18.5 | −0.6 | 23.4 | Ac-rdr-NH2 [ZP-0240]
12.2 | 6.7 | 10.7 | Ac-rgdgd-NH2 [ZP-0247]

same assay, conditions: structure stabilising peptides, 48 hours

endpoint thioflavin T fluorescence (in words) | Substance
significant decrease | Ac-rdr-NH2 [ZP-0240]

same assay, conditions: timeframe of the assay 48 h, 50 μM ASYN, 100 μM inhibitor

increase in ThT signal compared to ASYN only | Substance
No significant increase | NMP-NMP-NMP-NMP-kvfgtaa-NH2 [ZP-0154]
No significant increase | NMP-NMP-NMP-kvfgtaa-NH2 [ZP-0155]

target: T1, ASYN (Homo sapiens, UniProt P37840); experiment: Kinetic ThT aggregation assay in 25 mM Tris-Cl pH 7.4 with 100 mg/ml PEG 3350; type: biochemical; settings: Tris-Cl pH 7.4; 48 hours; average over the named inhibitors
Method: as §1
For compounds ZP-0089 to ZP-0094, a kinetic ThT experiment was performed in 25 mM Tris-Cl at 37° C. to test the inhibition properties of ZP-0089 to ZP-0094 in Tris-Cl pH 7.4. Each 200 μl sample on the 96 well-plate contained 50 μM ASYN, 100 μM inhibitor and 100 mg/ml PEG along with buffer only and ASYN only controls. Samples were measured in triplicate. ThT fluorescence over time was monitored for 48 hours.

decrease in the endpoint ThT reading [%] | Substance
18±2 | Ac-sgvylvg-COOH [ZP-0091]
18±2 | NH2-sgvylvg-COOH [ZP-0092]
18±2 | NH2-sgvylvg-NH2 [ZP-0094]

same assay, conditions: both buffer conditions (Tris-Cl pH 7.4 and PBS); 50 μM ASYN, 100 μM inhibitor

inhibition compared to ASYN alone [%] | Substance
> 30 | L-DOPA-gpvntvq-NH2 [ZP-0090]
> 60 | L-DOPA-sgvylvg-NH2 [ZP-0089]

same assay, conditions: endpoint; Tris-Cl pH 7.4 at 37° C. with 100 mg/ml PEG 3350; 50 μM ASYN, 100 μM inhibitor

ThT signal compared to ASYN (FIG. 11) | Substance
significantly decreased | L-DOPA-gpvntvq-NH2 [ZP-0090]
significantly decreased | L-DOPA-sgvylvg-NH2 [ZP-0089]

target: T1, ASYN; experiment: Kinetic ThT aggregation assay in PBS pH 7.4; type: biochemical; settings: FIG. 13; PBS; asyn:inhibitor 1:2
Method: The molar ratio of asyn:inhibitor is 1:2. For both, ASYN aggregation inhibition is observed as an increased lag time along with decreased endpoint ThT fluorescence.
as §1
For compounds ZP-0089 to ZP-0094, a kinetic experiment was performed to test the inhibition properties in PBS pH 7.4 as described above. Samples were assayed in triplicate and each sample contained 50 μl of 200 μM ASYN and 50 μl of 400 μM inhibitor was added to 100 μl PBS in a well and mixed to yield a 200 μl sample volume containing 50 μM ASYN and 100 μM inhibitor. Control wells contained either buffer only or ASYN only.

endpoint ThT fluorescence | lag phase / lag time | rate of amyloid formation | Substance
decreased | increased | decreased | L-DOPA-gpvntvq-NH2 [ZP-0090]
decreased | large increase; also recorded: increased | decreased | L-DOPA-sgvylvg-NH2 [ZP-0089]

same assay, conditions: endpoint; legend prints Tris-Cl pH 7.4 at 37° C. with 100 mg/ml PEG 3350

ThT signal compared to ASYN (FIG. 12) | Substance
significantly decreased | L-DOPA-gpvntvq-NH2 [ZP-0090]
significantly decreased | L-DOPA-sgvylvg-NH2 [ZP-0089]
